Laboratory results from patent US8846638B2, “Macrocyclic nucleoside phosphoramidate derivatives” (Enanta Pharmaceuticals, Inc., priority 2012, dated 2014).

What was measured:
[1] = system: HCV 1b genotype replicon (strain Con1, SGR 11-7 cell line); test: HCV replicon assay, qRT-PCR, genotype 1b (SGR 11-7 cells); type: cell-based; conditions: Hepatitis C virus; Genotype-1b replicon, HCV RNA by qRT-PCR normalized to GAPDH RNA
Text: (§1) HCV replicon cell lines (kindly provided by R. Bartenschlager) isolated from colonies as described by Lohman et al. (Lohman et al. (1999) Science 285: 110-113, expressly incorporated by reference in its entirety) and used for all experiments. One of the HCV replicon cell lines (strain Con1, genotype 1b) has the nucleic acid sequence set forth in EMBL Accession No.: AJ242651, the coding sequence of which is from nucleotides 1801 to 8406. Another replicon cell line (strain H77, genotype 1a) was constructed as described by Yi et. al. (Yi et. al. (2004) Journal of Virology 78(15):7904-15). The coding sequences of the published HCV replicons were synthesized and subsequently assembled in plasmids using standard molecular biology techniques.
(§2) One replicon cell line (“SGR 11-7”) stably expresses HCV replicon RNA, genotype 1b, which consists of (i) the HCV 5′UTR fused to the first 12 amino acids of the capsid protein, (ii) the neomycin phosphotransferase gene (neo), (iii) the IRES from encephalomyocarditis virus (EMCV) and (iv) HCV […] to NS5B genes and the HCV 3′UTR. Another replicon cell line (“Huh-1a7”) described by Yi et. al. (Yi et. al. (2004) Journal of Virology 78(15):7904-15, expressly incorporated by reference in its entirety) stably expresses HCV replicon RNA, genotype 1a, which consists of (i) the HCV 5′UTR fused to the first 12 amino acids of the capsid protein, (ii) the HIV tat protein, (iii) the neomycin phosphotransferase gene (neo), (iv) the IRES from encephalomyocarditis virus (EMCV) and (vi) HCV NS3 to NS5B genes that harbor cell culture adaptive mutations (Q1067R, K1691R, S2204I) and the HCV 3′UTR.
(§3) These cell lines are maintained at 37° C., 5% CO2, 100% relative humidity in DMEM (Cat#11965-084, Invitrogen), with 10% fetal calf serum (“FCS”, Invitrogen), 1% non-essential amino acids (Invitrogen), 1% of Glutamax (Invitrogen), 1% of 10× penicillin/streptomycin (Cat#15140-122, Invitrogen) and Geneticin (Cat#10131-027, Invitrogen) at 0.75 mg/ml or 0.25 mg/ml for 11-7 and Huh-1a7 cells, respectively.
(§4) EC50 values of single agent compounds were determined by HCV RNA detection using quantitative RT-PCR, according to the manufacturer's instructions, with a TAQMAN® One-Step RT-PCR Master Mix Reagents Kit (Cat#AB 4309169, Applied Biosystems) on an ABI Model 7500 thermocycler. EC50 values of combinations are similarly determined by HCV RNA detection using quantitative RT-PCR. The TAQMAN primers to use for detecting and quantifying HCV RNA obtained from Integrated DNA Technologies. HCV RNA is normalized to GAPDH RNA levels in drug-treated cells, which is detected and quantified using the Human GAPDH Endogenous Control Mix (Applied Biosystems, AB 4310884E). Total cellular RNA is purified from 96-well plates using the RNAqueous 96 kit (Ambion, Cat#AM1812). Chemical agent cytotoxicity is evaluated using an MTS assay according to the manufacturer's directions (Promega).
(§5) The compounds of the present invention can be effective against the HCV 1a and 1b genotypes. It should also be understood that the compounds of the present invention can inhibit multiple genotypes of HCV. In one embodiment, compounds of the present invention are active against the 1a, 1b, 2a, 2b, 3a, 4a, and 5a genotypes. […] EC50 ranges against HCV 1a or 1b are as follows: A>1 μM; B 0.1-1 μM; C<0.1 μM.

[2] = system: HCV 1a genotype replicon (strain H77, Huh-1a7 cell line); test: HCV replicon assay, qRT-PCR, genotype 1a (Huh-1a7 cells); type: cell-based; conditions: Hepatitis C virus; Genotype-1a replicon, HCV RNA by qRT-PCR normalized to GAPDH RNA
Text: as §1, §2, §3, §4, §5

| Structure (SMILES) | EC50 [1] | EC50 [2] |
| --- | --- | --- |
| C[C@@H]1NP(=O)(Oc2ccccc2)OCC2OC(n3cnc4c(nc(N)nc43)OCCCCCCCCOC1=O)[C@](C)(O)[C@@H]2O (stereo partly shown) [Example 9] | 100 to 1000 nM | 100 to 1000 nM |
| C[C@@H]1NP(=O)(Oc2cccc3ccccc23)OCC2OC(n3cnc4c(nc(N)nc43)OCCCCCCCOC1=O)[C@](C)(O)[C@@H]2O (stereo partly shown) [Example 3] | 100 to 1000 nM | < 100 nM |
| C[C@@H]1NP(=O)(Oc2cccc3ccccc23)OCC2OC(n3cnc4c(nc(N)nc43)OCCCCCCOC1=O)[C@](C)(O)[C@@H]2O (stereo partly shown) [Example 7] | 100 to 1000 nM | < 100 nM |
| C[C@@H]1NP(=O)(Oc2ccccc2)OCC2OC(n3cnc4c(nc(N)nc43)OCCCCCCCOC1=O)[C@](C)(O)[C@@H]2O (stereo partly shown) [Example 8] | 100 to 1000 nM | 100 to 1000 nM |
| C[C@@H]1NP(=O)(Oc2cccc3ccccc23)OCC2OC(n3cnc4c(nc(N)nc43)OCCC=CCCCOC1=O)[C@](C)(O)[C@@H]2O (stereo partly shown) [Example 10] | 100 to 1000 nM | 100 to 1000 nM |
| C[C@@H]1NP(=O)(Oc2cccc3ccccc23)OCC2OC(n3cnc4c(nc(N)nc43)OCCCCC(F)(F)COC1=O)[C@](C)(O)[C@@H]2O (stereo partly shown) [Example 2] | 100 to 1000 nM | 100 to 1000 nM |
| CC(C)C[C@@H]1NP(=O)(Oc2cccc3ccccc23)OCC2OC(n3cnc4c(nc(N)nc43)OCCCCCCCOC1=O)[C@](C)(O)[C@@H]2O (stereo partly shown) [Example 4] | > 1000 nM | 100 to 1000 nM |
| C[C@@H]1NP(=O)(Oc2cccc3ccccc23)OCC2OC(n3cnc4c(nc(N)nc43)OCCCCCOCCCOC1=O)[C@](C)(O)[C@@H]2O (stereo partly shown) [Example 5] | > 1000 nM | 100 to 1000 nM |
